{"source": "ChEMBL document CHEMBL5113526", "about": "“Design, Synthesis, and Biological Evaluation of Androgen Receptor Degrading and Antagonizing Bifunctional Steroidal Analogs for the Treatment of Advanced Prostate Cancer” (J Med Chem, 2022)", "key": {"[1]": {"system": "LNCaP", "assay": "Antiproliferative activity against human LNCAP cells assessed as reduction in cell viability at 10 uM measured after 6 days by CellTiterGlo assay relative to control", "format": "functional", "conditions": "time 6 day; for inhibition at 10 µM: Homo sapiens, LNCaP"}, "[2]": {"molecular_target": "T1, Androgen receptor (Homo sapiens, UniProt P10275)", "T1 sequence (P10275 whole entry)": "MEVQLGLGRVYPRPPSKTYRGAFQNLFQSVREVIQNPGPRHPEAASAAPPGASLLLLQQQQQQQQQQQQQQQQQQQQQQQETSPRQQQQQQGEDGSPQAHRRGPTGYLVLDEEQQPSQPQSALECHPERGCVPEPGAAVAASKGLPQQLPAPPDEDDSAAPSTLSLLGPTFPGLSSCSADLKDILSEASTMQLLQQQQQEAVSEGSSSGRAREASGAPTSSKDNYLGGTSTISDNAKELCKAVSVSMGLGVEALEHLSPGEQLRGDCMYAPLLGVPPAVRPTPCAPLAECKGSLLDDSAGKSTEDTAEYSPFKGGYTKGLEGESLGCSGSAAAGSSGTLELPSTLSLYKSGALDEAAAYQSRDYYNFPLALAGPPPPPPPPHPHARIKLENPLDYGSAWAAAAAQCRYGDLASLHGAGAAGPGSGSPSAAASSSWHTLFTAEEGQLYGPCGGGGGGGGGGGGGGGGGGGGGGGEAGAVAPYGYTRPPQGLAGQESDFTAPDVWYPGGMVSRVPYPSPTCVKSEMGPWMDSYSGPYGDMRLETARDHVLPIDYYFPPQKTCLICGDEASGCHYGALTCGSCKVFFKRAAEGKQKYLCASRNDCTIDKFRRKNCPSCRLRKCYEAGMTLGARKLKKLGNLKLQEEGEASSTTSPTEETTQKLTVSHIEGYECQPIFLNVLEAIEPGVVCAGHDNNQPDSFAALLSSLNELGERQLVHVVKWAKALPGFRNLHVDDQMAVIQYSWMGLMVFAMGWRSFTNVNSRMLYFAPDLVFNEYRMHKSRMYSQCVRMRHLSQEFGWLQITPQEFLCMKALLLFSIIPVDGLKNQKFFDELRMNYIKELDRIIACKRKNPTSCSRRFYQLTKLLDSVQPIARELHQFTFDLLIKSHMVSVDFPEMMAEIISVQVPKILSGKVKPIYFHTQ", "assay": "Antagonist activity at DHT-induced Androgen receptor transcriptional activity in human HEK293 cells measured after 24 hrs by Steady-Glo reagent based assay", "format": "cell-based"}, "[3]": {"assay": "Terminal half life in Sprague-Dawley rat at 10 mg/kg, po measured up to 24 hrs by LC-MS/MS analysis", "format": "ADME, organism-based", "conditions": "in vivo, read-out: beta t1/2 (converted)"}, "[4]": {"assay": "Tmax in Sprague-Dawley rat at 10 mg/kg, po measured up to 24 hrs by LC-MS/MS analysis", "format": "ADME, organism-based", "conditions": "in vivo"}, "[5]": {"assay": "Cmax in Sprague-Dawley rat at 10 mg/kg, po measured up to 24 hrs by LC-MS/MS analysis", "format": "ADME, organism-based", "parameters": "dose 10 mg/kg, time < 24 hrs, route po", "conditions": "in vivo"}, "[6]": {"assay": "AUC (0 to t) in Sprague-Dawley rat at 10 mg/kg, po measured up to 24 hrs by LC-MS/MS analysis", "format": "ADME, organism-based", "parameters": "time < 24 hrs, dose 10 mg/kg, route po", "conditions": "in vivo"}, "[7]": {"molecular_target": "Voltage-gated inwardly rectifying potassium channel KCNH2 (Homo sapiens, UniProt Q12809)", "sequence (Q12809 whole entry)": "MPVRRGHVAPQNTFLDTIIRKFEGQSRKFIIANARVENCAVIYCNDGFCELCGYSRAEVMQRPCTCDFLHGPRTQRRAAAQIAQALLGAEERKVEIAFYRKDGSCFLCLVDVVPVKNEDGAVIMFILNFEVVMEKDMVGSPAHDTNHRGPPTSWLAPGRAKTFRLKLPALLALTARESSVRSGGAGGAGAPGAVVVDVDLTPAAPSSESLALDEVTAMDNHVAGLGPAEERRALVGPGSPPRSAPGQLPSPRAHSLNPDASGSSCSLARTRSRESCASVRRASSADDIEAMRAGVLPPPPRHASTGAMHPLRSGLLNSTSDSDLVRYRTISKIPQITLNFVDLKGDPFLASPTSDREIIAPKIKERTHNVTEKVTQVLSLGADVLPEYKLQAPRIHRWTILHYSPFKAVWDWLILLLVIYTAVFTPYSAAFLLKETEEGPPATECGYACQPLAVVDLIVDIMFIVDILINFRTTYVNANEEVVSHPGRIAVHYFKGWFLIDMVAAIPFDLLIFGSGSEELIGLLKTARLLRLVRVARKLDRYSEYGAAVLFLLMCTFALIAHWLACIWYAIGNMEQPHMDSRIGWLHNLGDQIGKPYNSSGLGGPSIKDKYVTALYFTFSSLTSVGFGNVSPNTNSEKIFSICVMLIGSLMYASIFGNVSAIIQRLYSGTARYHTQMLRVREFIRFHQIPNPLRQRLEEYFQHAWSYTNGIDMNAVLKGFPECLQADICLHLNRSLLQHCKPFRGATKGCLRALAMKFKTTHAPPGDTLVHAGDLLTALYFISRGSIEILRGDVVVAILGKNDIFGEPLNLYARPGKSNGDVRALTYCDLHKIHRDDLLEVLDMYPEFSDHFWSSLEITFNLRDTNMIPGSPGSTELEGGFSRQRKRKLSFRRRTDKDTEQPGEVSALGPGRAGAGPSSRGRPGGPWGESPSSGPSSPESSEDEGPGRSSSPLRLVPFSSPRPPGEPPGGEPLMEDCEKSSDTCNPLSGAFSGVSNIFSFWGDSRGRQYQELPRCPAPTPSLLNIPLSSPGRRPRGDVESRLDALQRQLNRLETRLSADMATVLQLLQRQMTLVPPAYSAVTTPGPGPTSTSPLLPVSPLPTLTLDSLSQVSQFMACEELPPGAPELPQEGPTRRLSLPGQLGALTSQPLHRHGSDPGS", "assay": "Inhibition of hERG potassium channel at -80 mV holding potential incubated for 3 mins by automated patch clamp method", "format": "toxicity"}, "[8]": {"system": "LNCaP", "assay": "cells", "conditions": "Homo sapiens", "description": "Antiproliferative activity against human LNCAP cells assessed as reduction in cell viability measured after 6 days by CellTiter-Glo assay"}, "[9]": {"molecular_target": "T2, Steroid 17-alpha-hydroxylase/17,20 lyase (Homo sapiens, UniProt P05093)", "T2 sequence (P05093 whole entry)": "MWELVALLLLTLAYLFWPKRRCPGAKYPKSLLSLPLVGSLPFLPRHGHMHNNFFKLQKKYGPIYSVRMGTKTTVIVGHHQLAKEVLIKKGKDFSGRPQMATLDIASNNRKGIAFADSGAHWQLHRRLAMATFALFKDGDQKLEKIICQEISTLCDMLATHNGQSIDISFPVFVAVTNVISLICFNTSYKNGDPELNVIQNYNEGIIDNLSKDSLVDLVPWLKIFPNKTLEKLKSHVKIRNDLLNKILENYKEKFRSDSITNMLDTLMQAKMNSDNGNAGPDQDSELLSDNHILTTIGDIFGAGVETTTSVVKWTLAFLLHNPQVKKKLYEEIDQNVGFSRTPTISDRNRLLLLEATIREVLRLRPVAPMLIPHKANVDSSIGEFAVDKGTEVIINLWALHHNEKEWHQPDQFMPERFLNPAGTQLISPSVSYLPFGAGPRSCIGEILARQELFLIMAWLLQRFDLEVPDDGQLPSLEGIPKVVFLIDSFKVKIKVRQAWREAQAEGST", "assay": "Inhibition of human recombinant CYP17A1 incubated for 5 mins in presence of NADPH by LC-MS/MS analysis", "format": "ADME"}, "[10]": {"molecular_target": "T1, Androgen receptor", "assay": "Induction of AR degradation in human LNCap cells incubated for 24 hrs by sandwich ELISA analysis", "format": "cell-based"}, "[11]": {"molecular_target": "T3, Androgen receptor (Homo sapiens) (UniProt P10275)", "T3 sequence (whole entry)": "T1 sequence (P10275 whole entry)", "assay": "Induction of AR degradation in human LNCap cells at 20 uM measured after 24 hrs by Western blot analysis", "format": "cell-based"}, "[12]": {"molecular_target": "T3, Androgen receptor (Homo sapiens)", "assay": "Induction of AR degradation in human LNCap cells at 20 uM by Western blot analysis", "format": "cell-based", "conditions": "time 2-24 hrs, TDE = time-dependent effect"}, "[13]": {"system": "CWR22R", "assay": "Antiproliferative activity against human 22Rv1 cells expressing AR-v7 assessed as reduction in cell viability measured after 6 days by CTG assay", "format": "functional, cell-based"}, "[14]": {"system": "CWR22R", "assay": "Antiproliferative activity against human 22Rv1 cells expressing AR-v7 assessed as reduction in cell viability at 30 uM measured after 6 days by CTG assay", "format": "functional", "conditions": "time 6 day"}, "[15]": {"system": "Androgen receptor (Homo sapiens), P10275 [UNDEFINED MUTATION]", "assay": "Induction of AR-v7 degradation in human 22Rv1 cells incubated for 24 hrs by Western blot analysis", "format": "cell-based", "conditions": "dose 1-20 µM, DDE = dose-dependent effect"}, "[16]": {"assay": "Antagonist activity at androgen receptor W741L mutant (unknown origin) expressed in HEK293 cells incubated for 24 hrs by luciferase reporter assay", "format": "cell-based", "conditions": "Homo sapiens, HEK293, 24 h"}, "[17]": {"molecular_target": "Androgen receptor (Homo sapiens, UniProt P10275, T878A)", "sequence (P10275 whole entry T878A)": "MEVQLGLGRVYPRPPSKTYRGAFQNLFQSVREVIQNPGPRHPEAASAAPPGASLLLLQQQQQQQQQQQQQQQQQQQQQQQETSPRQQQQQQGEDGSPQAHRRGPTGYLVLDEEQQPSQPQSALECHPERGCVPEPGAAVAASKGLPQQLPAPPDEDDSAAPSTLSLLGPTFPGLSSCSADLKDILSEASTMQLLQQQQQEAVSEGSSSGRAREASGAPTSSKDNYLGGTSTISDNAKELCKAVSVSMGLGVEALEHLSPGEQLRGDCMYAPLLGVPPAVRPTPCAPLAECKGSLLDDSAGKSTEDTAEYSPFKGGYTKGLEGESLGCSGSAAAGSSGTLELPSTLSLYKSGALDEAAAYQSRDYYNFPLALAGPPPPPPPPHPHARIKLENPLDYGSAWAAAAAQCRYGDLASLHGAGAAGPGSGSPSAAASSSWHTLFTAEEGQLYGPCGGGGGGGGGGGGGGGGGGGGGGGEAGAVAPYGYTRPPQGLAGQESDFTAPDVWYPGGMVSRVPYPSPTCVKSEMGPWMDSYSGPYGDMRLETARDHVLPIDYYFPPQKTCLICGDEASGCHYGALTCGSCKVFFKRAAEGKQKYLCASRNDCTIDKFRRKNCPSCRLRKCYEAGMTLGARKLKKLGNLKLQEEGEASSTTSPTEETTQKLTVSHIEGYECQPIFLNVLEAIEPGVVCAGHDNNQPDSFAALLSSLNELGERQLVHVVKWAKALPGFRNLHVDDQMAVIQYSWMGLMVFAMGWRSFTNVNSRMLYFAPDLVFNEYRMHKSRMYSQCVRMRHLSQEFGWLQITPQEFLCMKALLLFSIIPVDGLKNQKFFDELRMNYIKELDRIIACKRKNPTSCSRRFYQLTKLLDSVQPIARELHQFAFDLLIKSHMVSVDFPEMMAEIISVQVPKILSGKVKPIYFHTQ", "assay": "Antagonist activity at androgen receptor T877A mutant (unknown origin) expressed in HEK293 cells incubated for 24 hrs by luciferase reporter assay", "format": "cell-based"}, "[18]": {"molecular_target": "Androgen receptor (Homo sapiens, UniProt P10275, F877L)", "sequence (P10275 whole entry F877L)": "as the sequence (P10275 whole entry T878A) above, with F877L, A878T counted along it", "assay": "Antagonist activity at androgen receptor F876L mutant (unknown origin) expressed in HEK293 cells incubated for 24 hrs by luciferase reporter assay", "format": "cell-based"}, "[19]": {"assay": "Inhibition of TP-stimulated andogen-sensitive seminal vesicle growth in castrated Sprague-Dawley rat at 20 mg/kg, po administered for 10 days and measured after 24 hrs last post dose by hershberger assay relative to control", "format": "functional", "conditions": "[…]"}, "[20]": {"assay": "Inhibition of TP-stimulated andogen-sensitive ventral prostate growth in castrated Sprague-Dawley rat at 20 mg/kg, po administered for 10 days and measured after 24 hrs last post dose by hershberger assay relative to control", "format": "functional", "conditions": "time 10 day"}, "[21]": {"system": "LNCaP C4-2B", "assay": "Antitumor activity against enzalutamide-resisitant human C4-2B cells xenografted in castrated BALB/c nude mouse assessed as change in tumor volume at 30 mg/kg, po qd measured after 4 weeks", "format": "functional"}, "[22]": {"assay": "Toxicity in castrated BALB/c nude mouse xenografted with enzalutamide-resisitant human C4-2B cells assessed as body weight loss at 30 mg/kg, po qd measured after 28 days", "format": "organism-based, LNCaP C4-2B", "conditions": "in vivo, 672 h, time 28 day"}}, "note": "pIC50: −log10 of the molar value. Active and inactive are the calls of the source. The calls are words filed in the database; no cut-off is given here.", "data": [{"smiles": "C[C@]12CC[C@H](NC(=O)c3ccncc3)CC1=CC[C@@H]1[C@@H]2CC[C@]2(C)C(n3ccnc3)=CC[C@@H]12", "values": [{"measurement": "inhibition at 10 µM", "setting": "[1]", "value": 97, "unit": "%"}, {"measurement": "pIC50", "setting": "[2]", "value": 6.29}, {"measurement": "half-life", "setting": "[3]", "value": 10, "unit": "h"}, {"measurement": "Tmax", "setting": "[4]", "value": 2, "unit": "h"}, {"measurement": "Cmax", "setting": "[5]", "value": 4500, "unit": "ng/mL"}, {"measurement": "AUC(0-t) at 24 h", "setting": "[6]", "value": 28800, "unit": "ng·h/mL"}, {"measurement": "pIC50", "setting": "[7]", "value": 5.30}, {"measurement": "pIC50", "setting": "[8]", "value": 6.50}]}, {"smiles": "Cc1cn(C2=CC[C@H]3[C@@H]4CC=C5C[C@@H](NC(=O)c6ccncc6)CC[C@]5(C)[C@H]4CC[C@]23C)cn1", "values": [{"measurement": "inhibition at 10 µM", "setting": "[1]", "value": 99.3, "unit": "%"}, {"measurement": "pIC50", "setting": "[9]", "value": 5.59}, {"measurement": "pIC50", "setting": "[2]", "value": 6.61}, {"measurement": "DC50", "setting": "[10]", "value": 2840, "unit": "nM"}, {"measurement": "half-life", "setting": "[3]", "value": 2.8, "unit": "h"}, {"measurement": "Tmax", "setting": "[4]", "value": 2.17, "unit": "h"}, {"measurement": "Cmax", "setting": "[5]", "value": 2670, "unit": "ng/mL"}, {"measurement": "AUC(0-t) at 24 h", "setting": "[6]", "value": 24800, "unit": "ng·h/mL"}, {"measurement": "pIC50", "setting": "[7]", "value": 5.19}, {"measurement": "Activity", "setting": "[11]", "value": "Active"}, {"measurement": "Activity", "setting": "[12]", "value": "Tde"}, {"measurement": "pIC50", "setting": "[13]", "value": 6.23}, {"measurement": "inhibition at 30 µM", "setting": "[14]", "value": 37, "unit": "%"}, {"measurement": "Activity", "setting": "[15]", "value": "Dde"}, {"measurement": "pIC50", "setting": "[16]", "value": 6.31}, {"measurement": "pIC50", "setting": "[17]", "value": 6.68}, {"measurement": "pIC50", "setting": "[18]", "value": 6.57}, {"measurement": "inhibition in vivo at 20 mg/kg", "setting": "[19]; Rattus norvegicus, Sprague-Dawley, 576 h", "value": 62, "unit": "%"}, {"measurement": "inhibition in vivo at 20 mg/kg", "setting": "[20]; Rattus norvegicus, Sprague-Dawley, 240 h", "value": 66, "unit": "%"}, {"measurement": "T/C", "setting": "[21]", "value": -14, "unit": "%"}, {"measurement": "Activity", "setting": "[22]", "value": "Non-Toxic"}, {"measurement": "pIC50", "setting": "[8]", "value": 6.69}]}, {"smiles": "CNC(=O)c1ccc(N2C(=S)N(c3ccc(C#N)c(C(F)(F)F)c3)C(=O)C2(C)C)cc1F", "note": "[ENZALUTAMIDE]", "values": [{"measurement": "inhibition (INH)", "setting": "[1]", "value": 68.83, "unit": "%"}, {"measurement": "inhibition (INH)", "setting": "[19]", "value": 67, "unit": "%"}, {"measurement": "inhibition (INH)", "setting": "[20]", "value": 67, "unit": "%"}]}]}
